The source of these data is US20070248591A1, “Preventive/Therapeutic Drug for Arteriosclerosis” (TAKEDA PHARMACEUTICAL COMPANY LIMITED, priority 2004, published 2007).

Assay [1] concerns THP-1 cells. Nature of the assay: Cholesterol efflux activity in foamed THP-1 macrophage-like cells ([3H]cholesterol, apolipoprotein AI). The settings on record: for Cholesterol Efflux Activity (%): mean ± standard deviation. The assay is classed as cell-based. As to the method:
THP-1 cells (purchased from ATCC; Int. J. Cancer., 26, 171-176, 1980) seeded in a 12-well plate (Falcon) at 8.0×10^5/well were treated for 3 days in RPMI-1640 medium (supplemented with 10% FBS, 25 mM HEPES and penicillin/streptomycin) containing phorbol-12-myristate-13-acetate (PMA) (final concentration: 100 nM) to allow for differentiation into macrophage-like cells. After washing with PBS, serum-free RPMI-1640 containing [^3H] cholesterol-labeled βVLDL (final cholesterol level: 150 μg/ml) was added thereto and incubated for 24 hours to prepare foamed cells. After washing twice with 0.2% BSA-containing PBS and then once with PBS, serum-free RPMI-1640 media supplemented with 0, and 20 µM D-PDMP, respectively, were added to treat for 24 and 48 hours. The supernatant was removed and RPMI-1640 medium (final concentration: 25 μg/ml) containing human apolipoprotein AI (Chemicon) was added thereto. Six hours after, the radioactivity released into the supernatant was measured in a liquid scintillation counter. The cells were further washed once with PBS and then lysed in 0.1% SDS-containing 0.1 N NaOH aqueous solution. A part of the lysate was taken up and the radioactivity was measured in a liquid scintillation counter.
The activity in efflux of cholesterol was determined by the following equation: Cholesterol efflux activity (%)=Radioactivity in supernatant/(Radioactivity in supernatant+Radioactivity in cell lysate)×100
Cells were prepared as described in (1) above. After the foamed cells prepared were washed, serum-free RPMI-1640 media containing 10 μM of glucosylceramide (Matreya, Inc.) and lactosylceramide (CALBIOCHEM), respectively, were added to treat for 24 hours. The supernatant was removed and RPMI-1640 medium (final concentration: 25 μg/ml) containing human apolipoprotein AI (Chemicon) was added thereto. Six hours after, the cholesterol efflux activity was measured by the same method as described in (1) above.

The next assay has as its system cells. The settings on record: J. Biochem. (Tokyo), 117, 766-773, 1995; cited from earlier work.
The subject of assay [2] is THP-1 cells. Nature of the assay: DiI-labeled acetyl LDL (denatured lipoprotein) uptake activity in THP-1 cells, FACS. In kind it is cell-based. As to the method: THP-1 cells (purchased from ATCC) seeded in a 6-well Low Cell Binding Plate (Nunc) at 1.5×10^6/well were treated for 2 days in RPMI-1640 medium (supplemented with 0.4% FBS, 25 mM HEPES and penicillin/streptomycin) containing phorbol-12-myristate-13-acetate (PMA) (final concentration: 100 nM) or in RPMI-1640 medium (supplemented with 0.4% FBS, 25 mM HEPES and penicillin/streptomycin) containing PMA (final concentration: 100 nM) and D-PDMP (final concentration: 20 μM). Next, the treated cells were washed with serum-free RPMI-1640 medium and then suspended in serum-free RPMI-1640 medium supplemented with DiI (1,1′-dioctadecyl-3,3,3′,3′-tetramethylindocarbocyanine)-labeled acetyl LDL (Funakoshi, final concentration: 20 μg/ml), followed by incubation at 37° C. for 90 minutes while shaking. After washing with PBS, the cells were suspended in Cellfix buffer (BD) and uptake of DiI-labeled acetyl LDL was analyzed on a FACScan (BD Bioscience). The intermediate value obtained by the FACS analysis of the cells treated with phorbol-12-myristate-13-acetate alone was made 100%, and relative values were determined under each condition.

The target in assay [3] is T1, glucosylceramide synthase (Homo sapiens, UniProt Q16739).
T1 sequence (Q16739 1-394): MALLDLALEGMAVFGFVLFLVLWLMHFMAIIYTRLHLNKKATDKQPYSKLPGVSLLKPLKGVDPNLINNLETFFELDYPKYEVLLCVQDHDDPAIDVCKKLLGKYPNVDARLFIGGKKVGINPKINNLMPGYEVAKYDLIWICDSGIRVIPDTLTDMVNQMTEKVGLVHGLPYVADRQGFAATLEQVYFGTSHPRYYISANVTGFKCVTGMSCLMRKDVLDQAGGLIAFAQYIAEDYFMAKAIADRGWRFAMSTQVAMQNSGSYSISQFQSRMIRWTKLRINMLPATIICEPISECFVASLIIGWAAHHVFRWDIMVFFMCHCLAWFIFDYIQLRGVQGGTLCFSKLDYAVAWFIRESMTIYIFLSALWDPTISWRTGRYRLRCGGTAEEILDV
The settings on record: Glycoconjugate J., 13, 481-486, 1996; cited from earlier work.

Assay [4] relates to lactosylceramide synthase. To be noted: Glycoconjugate J., 13, 481-486, 1996; cited from earlier work.
A further assay has as its system phosphorylation of IRS-1. The settings on record: J. Biol. Chem., 277, 3085-3092, 2002; cited from earlier work.
The target in assay [5] is T1, glucosylceramide synthase. The assay is described as follows: Glucosylceramide synthase enzyme assay ([14C]UDP-glucose, C8 ceramide, lysate of transfected HEK293 cells). To be noted: calculated using SAS Preclinical Package, ver. 5. In kind it is biochemical. Also on record: made in house; host or cells: HEK293 cells, transiently transfected with pcDNA3.1(-) vector; M-PER lysate, soluble fraction after 27,000 x g. As to the method: Human glucosylceramide synthase gene was obtained from IMAGE clone 5274768 (Invitrogen). The reaction solution for the reaction was composed of 2 μl of plasmid DNA of IMAGE clone 5274768, 5 μl of 10×Pfu buffer (Stratagene), 1 μl of Hotstart Pfu (Stratagene), 1 μl each of 20 μM primers and 4 μl of 2.5 mM dNTP, to which 36 μl of distilled water was added to make the volume […]. After 2 minutes at 95° C., PCR was carried out by repeating 30 cycles, one set to include 95° C. for 30 seconds, 60° C. for 30 seconds and 72° C. for 2 minutes, followed by an extension at 72° C. for 10 minutes. […]
HEK293 cells (purchased from ATCC; J. Gen. Virol., 36, 59-74, 1977) were cultured in serum-containing DMEM medium and seeded in a 10 cm collagen coated plate (Iwaki Co.) at 1.2×10^6 on the previous day of gene transfer. […] Then, the chloroform layer was collected and the radioactivity was measured in a liquid scintillation counter. The activity value was determined by the following equation: Glucosylceramide synthase activity (%)=Radioactivity of the enzyme reaction product (cpm)/Specific radioactivity of [^14C]UDP-glucose (cpm/nmol)×1/amount of protein (mg)·reaction time (hr)
D-PDMP known to inhibit the glucosylceramide synthase activity was examined using the procedure described above. The IC50 was calculated using SAS Preclinical Package, ver. […]

In another assay the test system is human endothelial cells. To be noted: added to the culture system; J. Biol. Chem., 273, 34349, 1998; cited from earlier work.
Assay [6] concerns human smooth muscle cells. To be noted: added to the culture system; Biochem. Biophys. Res. Commun., 181, 554-61, 1991; cited from earlier work.
[7] abbreviates: exogenously added to the culture system, summary of TABLES 2 and 3.

For Glucosylceramide, the “Cholesterol Efflux Activity (%)” value with THP-1 cells [1] (Glucosylceramide 10 μM, 24 hours, 0 μM control 3.6 ± 0.1) was 3.2 ± 0.2%. Besides, in the assay with THP-1 cells [1] (setting [7]), the “Effect on cholesterol efflux activity (in words)” value is given as “suppressed”.

In the case of `CCCCCCCCCC(=O)N[C@H](CN1CCOCC1)[C@H](O)c1ccccc1` [D-PDMP, D-threo-1-phenyl-2-decanoylamino-3-morpholino-1-propanol], the “Depletion of glucosylceramide and lactosylceramide in cells (in words)” value in the assay on cells was “deplete glucosylceramide and lactosylceramide in cells in a concentration- and treating time-dependent manner”. Further, the “Acetyl LDL Uptake Activity (%)” value in the assay on THP-1 cells [2] (D-PDMP 20 μM with PMA 100 nM, 2 days, relative to PMA alone = 100%, mean ± standard deviation) was 28.9 ± 6.3^ %. The “Effect on acetyl LDL uptake activity (in words)” value with THP-1 cells [2] (summary of TABLE 4) is given as “suppressed the acetyl LDL uptake activity”. The “Inhibition of glucosylceramide synthase activity (in words)” value in [3] was “known to inhibit the activities”. In addition, the “Cholesterol Efflux Activity (%)” value is 4.4 ± 0.4% in the assay with THP-1 cells [1] (D-PDMP 10 μM, 24 hrs. treatment, 0 μM control 1.7 ± 0.3); 6.0 ± 0.4% in the assay with THP-1 cells [1] (D-PDMP 10 μM, 48 hrs. treatment, 0 μM control 2.1 ± 0.2); 4.3 ± 0.8% with THP-1 cells [1] (D-PDMP 20 μM, 24 hrs. treatment, 0 μM control 1.7 ± 0.3); 6.8 ± 0.5% in the assay with THP-1 cells [1] (D-PDMP 20 μM, 48 hrs. treatment, 0 μM control 2.1 ± 0.2). In addition, the “Effect on cholesterol efflux activity (in words)” value with THP-1 cells [1] (summary of TABLE 1) was “increased the cholesterol efflux activity concentration- and time-dependently”. Besides, in assay [4], the “Inhibition of lactosylceramide synthase activity (in words)” value was “known to inhibit the activities”. Moreover, in the assay with phosphorylation of IRS-1, the “Effect on the action of TNF-α that inhibits phosphorylation of IRS-1” value is given as “suppresses the action of TNF-α that inhibits phosphorylation of IRS-1”. In addition, in [5], the 50% inhibitory concentration (IC50) (usually the midpoint of a concentration-inhibition curve) was 1500 nM.

In the case of Lactosylceramide, in the assay on human endothelial cells, the “Expression of cell adhesion molecules such as ICAM-1” value is on record as “is increased in human endothelial cells”. Also, in assay [6], the Proliferation activity result is reported as “the proliferation activity is increased”. Also, the “Cholesterol Efflux Activity (%)” value with THP-1 cells [1] (Lactosylceramide 10 μM, 24 hours, 0 μM control 4.3 ± 0.2) was 2.3 ± 0.2%. Besides, the “Effect on cholesterol efflux activity (in words)” value in the assay on THP-1 cells [1] (setting [7]) is listed as “suppressed”.
